Data on one compound can be found in US12594282B2, “Use of small molecule compounds in the treatment of diseases mediated by lung epithelial cell injury and/or vascular endothelial cell injury” (Guangzhou Cellprotek Pharmaceutical Co., Ltd., priority 2020, dated 2026).

SMILES strings stand for the structures.

For the experiment, the system named is NR4A3 mRNA. Put plainly: NR4A3 mRNA under OGD-R, HUVEC (real-time fluorescent quantitative PCR). The format is cell-based, human. The note with it: 10 μM given at restoration. The protocol:
HUVEC cells were cultured in modified DMEM medium containing 10% fetal bovine serum. When the cells reached about 80% confluence, the cells were digested with 0.25% trypsin, and then pipetted evenly with modified DMEM containing 10% […]. The cell concentration was adjusted to 1×10^5 cells/mL, and the cells were seeded at 400 uL/well in a 24-well plate, and the experiment was carried out when the cells grew to about 70% confluence. RAOEC cells were cultured in high-glucose DMEM medium containing 10% fetal bovine serum, and the seeding conditions were the same as those of HUVEC. During the OGD-R injury treatment, the hypoxia workstation was set to have an oxygen concentration of 1% (1% O2, 5% CO2, 94% N2), a temperature of 37° C., and a humidity of 85%. A sugar-free DMEM medium was placed in the hypoxia workstation for pre-hypoxia for 3 hours. The medium in the culture plate was aspirated, and the plate was washed twice with preheated sugar-free DMEM medium, and 100 uL of sugar-free DMEM medium was added to each well. The culture plate was placed in the hypoxia workstation, and 300 uL of pre-hypoxic sugar-free DMEM medium was added to each well, and then the culture plate was placed in the hypoxia workstation for additional hypoxia for 4 hours. Restoration was then performed. […]

Take `C[C@@]12CCCC1C1C[C@@H](O)[C@]3(O)C[C@@H](O)CC[C@]3(C)C1CC2` (stereo partly drawn) [YC-6, 5α-androst-3β,5,6β-triol]: the “transcription level of NR4A3 (relative mRNA expression)” value is given as “did not significantly up-regulate the transcription level of NR4A3”.
